Experimental data as given in US4451473A, “3,7-Diazabicyclo [3.3.1] nonanes having anti-arrhythmic activity” (Richter Gedeon Vegyeszeti Gyar Rt., priority 1981, dated 1984).
Structures can show the parent of a compound that is named as a salt.

Key:
[1] = tested on: calcium antagonistic effect; assay: Calcium antagonistic effect (pA2)
[2] = in vivo; settings: mouse, iv
[3] = tested on: disorders of cardiac rhythm provoked by aconitine in rats; format: in vivo; settings: ED50 rat i.v. / LD50 mouse i.v.
Experimental: When examining the antiarrhythmic effects, rats were pre-treated intravenously with 1 mg/kg of aconitine to provoke disorders of cardiac rhythm [Med. Exp. (Basel) 10, 93 (1964)], thereafter the test compound was administered intravenously, and the dose required to restore the rhythm in 50% (ED50 mg/kg) was determined.

In the case of COc1ccc(CCN(C)CCCC(C#N)(c2ccc(OC)c(OC)c2)C(C)C)cc1OC (racemic) [Verapramil, reference compound], the “calcium antagonistic effect (pA2)” value [1] is reported as 4.58-4.7.
For CCOc1ccc(C(=O)OC2C3CN(C)CC2CN(C)C3)cc1OC (stereo not shown) [3,7-Dimethyl-9-(3'-methoxy-4'-ethoxy-benzoyloxy)-3,7-diazabicyclo[3.3.1]nonane], the LD50 [2] was 13.5 mg/kg and the “Therap. index (ED50/LD50)” value [3] was 0.074.
With CN1CC2CN(C)CC(C1)C2Oc1ccc(Cl)cc1.O=C(O)/C=C/C(=O)O (stereo not shown) [3,7-Dimethyl-9-(4'-chlorophenoxy)-3,7-diazabicyclo[3.3.1]nonane fumarate] the LD50 [2] was 52 mg/kg and the “Therap. index (ED50/LD50)” value [3] was 0.017.
For CN1CC2CN(C)CC(C1)C2OC(c1ccccc1)c1ccccc1.O=C(O)/C=C/C(=O)O (stereo not shown) [3,7-Dimethyl-9-benzhydryloxy-3,7-diazabicyclo[3.3.1]nonane fumarate], the LD50 [2] was 21 mg/kg and the “Therap. index (ED50/LD50)” value [3] was 0.057.
In the case of CN1CC2CN(C)CC(C1)C2OC(=O)c1ccccc1 (stereo not shown) [3,7-Dimethyl-9-benzoyloxy-3,7-diazabicyclo[3.3.1]nonane], the LD50 [2] is reported as 9 mg/kg and the “Therap. index (ED50/LD50)” value [3] is reported as 0.009.
In the case of CCCCN1CC2CN(CCCC)CC(C1)C2OC(=O)c1ccc(Cl)cc1 (stereo not shown) [3,7-di-n-butyl-9-(4'-chlorobenzoyloxy)-3,7-diazabicyclo[3.3.1]nonane], the LD50 [2] is reported as 5 mg/kg and the “Therap. index (ED50/LD50)” value [3] is reported as 0.050.
With CCN1CC2CN(CC)CC(C1)C2OC(=O)c1ccc(Cl)cc1.Cl.Cl.O (stereo not shown) [3,7-diethyl-9-(4'-chloro-benzoyloxy)-3,7-diazabicyclo[3.3.1]nonane dihydrochloride monohydrate] the LD50 [2] was 11 mg/kg and the “Therap. index (ED50/LD50)” value [3] was 0.036.
With CN1CC2CN(C)CC(C1)C2OC(=O)c1ccc2ccccc2c1 (stereo not shown) [3,7-dimethyl-9-(2'-naphthoyloxy)-3,7-diazabicyclo[3.3.1]nonane] the LD50 [2] was 17 mg/kg and the “Therap. index (ED50/LD50)” value [3] was 0.006.
With CN1CC2CN(C)CC(C1)C2OC(=O)C1c2ccccc2Oc2ccccc21 (stereo not shown) [3,7-dimethyl-9-(xanthene-9'-carbonyloxy)-3,7-diazabicyclo[3.3.1]nonane] the LD50 [2] was 14 mg/kg and the “Therap. index (ED50/LD50)” value [3] was 0.019.
In the case of CN1CC2CN(C)CC(C1)C2Oc1ccccc1.O=C(O)/C=C/C(=O)O (stereo not shown) [3,7-dimethyl-9-phenoxy-3,7-diazabicyclo[3.3.1]nonane fumarate], the LD50 [2] is reported as 39 mg/kg and the “Therap. index (ED50/LD50)” value [3] is reported as 0.029.
In the case of CCN1CC2CN(C)CC(C1)C2OC(=O)c1ccc(Cl)cc1Cl (stereo not drawn) [3-Methyl-7-ethyl-9α-(2',4'-dichloro-benzoyloxy)-3,7-diazabicyclo[3.3.1]nonane dihydrochloride], the LD50 [2] is reported as 20 mg/kg and the “Therap. index (ED50/LD50)” value [3] is reported as 0.055.
For CCN1CC2CN(C)CC(C1)C2Oc1ccccc1Cl (stereo not drawn) [3-Methyl-7-ethyl-9α-(2'-chlorophenoxy)-3,7-diazabicyclo[3.3.1]nonanedihydrochloride], the LD50 [2] was 28 mg/kg and the “Therap. index (ED50/LD50)” value [3] was 0.041.
For CCN1CC2CN(C)CC(C1)C2OC(=O)c1ccc(Cl)cc1 (stereo not drawn) [3-Methyl-7-ethyl-9α-(4'-chloro-benzoyloxy)-3,7-diazabicyclo[3.3.1]nonane dihydrochloride], the “calcium antagonistic effect (pA2)” value [1] was 4.33-4.6.
For CCN1CC2CN(C)CC(C1)C2Oc1ccc(Cl)cc1 (stereo not drawn) [3-Methyl-7-ethyl-9α-(4'-chlorophenoxy)-3,7-diazabicyclo[3.3.1]nonanedihydrochloride], the LD50 [2] was 41 mg/kg and the “Therap. index (ED50/LD50)” value [3] was 0.030.
For CCN1CC2CN(C)CC(C1)C2OC(=O)c1ccc(-c2ccccc2)cc1 (stereo not drawn) [3-Methyl-7-ethyl-9α-(4'-phenyl-benzoyloxy)-3,7-diazabicyclo[3.3.1]nonane], the LD50 [2] was 19.5 mg/kg and the “Therap. index (ED50/LD50)” value [3] was 0.061.
